According to paper PMC5913400, “Yoda1 analogue (Dooku1) which antagonizes Yoda1‐evoked activation of Piezo1 and aortic relaxation” (British Journal of Pharmacology, 2018):
Read-outs that look alike come from different tables or passages of the source. Blank lines part the entries; values can stand above or below the compound they belong to.

Assays:
Type in all cases: cell-based
Piezo1 [1] = molecular target: T1, Piezo1 (Homo sapiens, UniProt Q92508); assay: inhibition of […] Yoda1-evoked Ca2+ entry in Piezo1 T-REx HEK […] cells; reversible; also Tl+ flux and HUVECs (IC50 […])
T1 sequence (Q92508 whole entry): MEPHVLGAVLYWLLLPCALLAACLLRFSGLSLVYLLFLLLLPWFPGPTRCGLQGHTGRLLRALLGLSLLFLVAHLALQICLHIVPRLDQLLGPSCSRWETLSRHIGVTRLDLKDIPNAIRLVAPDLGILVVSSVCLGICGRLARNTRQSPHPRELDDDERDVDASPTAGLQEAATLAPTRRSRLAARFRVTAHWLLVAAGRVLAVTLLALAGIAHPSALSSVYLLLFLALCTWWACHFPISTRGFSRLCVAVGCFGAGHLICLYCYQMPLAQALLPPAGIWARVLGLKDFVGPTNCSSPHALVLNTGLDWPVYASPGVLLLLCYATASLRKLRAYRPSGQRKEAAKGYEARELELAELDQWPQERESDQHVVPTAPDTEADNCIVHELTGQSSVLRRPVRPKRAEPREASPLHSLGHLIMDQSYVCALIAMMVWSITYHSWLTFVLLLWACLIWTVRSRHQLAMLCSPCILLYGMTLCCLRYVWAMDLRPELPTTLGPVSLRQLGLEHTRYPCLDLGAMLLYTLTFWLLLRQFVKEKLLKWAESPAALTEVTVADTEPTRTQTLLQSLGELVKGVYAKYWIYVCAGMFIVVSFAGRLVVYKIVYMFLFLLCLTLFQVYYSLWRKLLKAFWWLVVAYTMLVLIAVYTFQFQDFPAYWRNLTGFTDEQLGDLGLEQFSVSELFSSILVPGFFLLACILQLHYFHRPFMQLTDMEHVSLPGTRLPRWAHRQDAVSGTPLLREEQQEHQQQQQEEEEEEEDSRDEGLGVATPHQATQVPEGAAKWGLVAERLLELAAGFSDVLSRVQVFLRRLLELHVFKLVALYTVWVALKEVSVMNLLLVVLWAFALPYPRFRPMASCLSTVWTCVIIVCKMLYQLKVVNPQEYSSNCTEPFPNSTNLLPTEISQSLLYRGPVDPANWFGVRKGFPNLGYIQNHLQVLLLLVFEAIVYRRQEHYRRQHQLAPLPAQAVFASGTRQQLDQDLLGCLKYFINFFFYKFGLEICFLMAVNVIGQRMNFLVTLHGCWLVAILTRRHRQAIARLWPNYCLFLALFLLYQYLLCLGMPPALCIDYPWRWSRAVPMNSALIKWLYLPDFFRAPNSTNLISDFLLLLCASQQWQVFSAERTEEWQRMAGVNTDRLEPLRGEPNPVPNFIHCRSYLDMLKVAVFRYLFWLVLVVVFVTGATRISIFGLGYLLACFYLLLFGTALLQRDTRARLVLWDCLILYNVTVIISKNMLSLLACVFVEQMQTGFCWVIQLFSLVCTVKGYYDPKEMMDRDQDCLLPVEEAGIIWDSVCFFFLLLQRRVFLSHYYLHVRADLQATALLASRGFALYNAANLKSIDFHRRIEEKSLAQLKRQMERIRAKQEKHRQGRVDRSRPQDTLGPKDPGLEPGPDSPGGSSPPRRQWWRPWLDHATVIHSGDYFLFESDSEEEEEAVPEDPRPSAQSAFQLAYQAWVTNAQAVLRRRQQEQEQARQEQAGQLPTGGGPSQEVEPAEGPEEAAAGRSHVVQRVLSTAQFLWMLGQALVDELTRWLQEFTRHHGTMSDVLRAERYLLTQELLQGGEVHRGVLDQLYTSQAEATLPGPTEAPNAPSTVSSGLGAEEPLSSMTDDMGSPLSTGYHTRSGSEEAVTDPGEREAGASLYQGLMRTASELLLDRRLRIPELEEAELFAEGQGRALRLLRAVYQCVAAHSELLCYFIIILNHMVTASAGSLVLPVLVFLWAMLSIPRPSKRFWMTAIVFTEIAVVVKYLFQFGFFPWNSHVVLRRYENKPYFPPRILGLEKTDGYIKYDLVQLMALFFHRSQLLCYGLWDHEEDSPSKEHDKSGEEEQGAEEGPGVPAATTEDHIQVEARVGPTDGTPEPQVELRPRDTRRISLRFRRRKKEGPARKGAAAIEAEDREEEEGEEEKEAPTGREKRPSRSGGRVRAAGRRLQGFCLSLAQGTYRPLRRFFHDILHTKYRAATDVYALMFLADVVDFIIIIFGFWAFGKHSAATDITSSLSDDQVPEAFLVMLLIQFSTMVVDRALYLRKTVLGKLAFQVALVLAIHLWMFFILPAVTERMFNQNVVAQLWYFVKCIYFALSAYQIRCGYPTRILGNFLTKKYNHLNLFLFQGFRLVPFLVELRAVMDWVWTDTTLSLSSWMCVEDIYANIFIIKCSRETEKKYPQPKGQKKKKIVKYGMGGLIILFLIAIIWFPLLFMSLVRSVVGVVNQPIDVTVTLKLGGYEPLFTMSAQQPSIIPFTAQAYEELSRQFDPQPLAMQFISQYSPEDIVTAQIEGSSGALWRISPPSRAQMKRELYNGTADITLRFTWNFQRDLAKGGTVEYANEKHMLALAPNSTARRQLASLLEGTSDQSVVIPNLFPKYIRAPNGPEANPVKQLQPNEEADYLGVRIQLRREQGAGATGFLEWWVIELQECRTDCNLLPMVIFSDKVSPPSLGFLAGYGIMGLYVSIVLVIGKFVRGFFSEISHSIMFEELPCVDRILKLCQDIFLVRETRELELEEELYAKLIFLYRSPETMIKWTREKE

Piezo1 [2] = molecular target: T1, Piezo1; assay: Ca2+ entry at […] in Piezo1 T-REx HEK […] cells ([…] of Yoda1 response); also reduces Yoda1 response; conditions: TREx-HEK; read-out: % of 10 μM Yoda1 response
Piezo1 [3] = molecular target: T1, Piezo1; assay: intracellular Ca2+ (fura-2) in Piezo1 T-REx HEK […] cells; no response in cells without Piezo1; EC50 […] in HUVECs
Piezo1 [4] = molecular target: T1, Piezo1; assay: partial agonist; […] pretreatment reduces […] Yoda1-evoked Ca2+ entry in Piezo1 T-REx HEK […] cells; conditions: TREx-HEK; read-out: % inhibition of Yoda1 response at 10 μM
Piezo1 [5] = molecular target: T1, Piezo1; assay: Ca2+ entry at […] in Piezo1 T-REx HEK […] cells ([…] of Yoda1 response); also reduces Yoda1 response; conditions: TREx-HEK; read-out: % of 10 μM Yoda1 response; remark: listed apart in the source

IC50 (Piezo1 [1]): 1.3 µM
SMILES: Clc1cccc(Cl)c1CSc1nnc(-c2ccc[nH]2)o1 [2k, Dooku1]

SMILES: Clc1cccc(Cl)c1CSc1nnc(-c2cccnc2)s1 [7a]
Emax (Piezo1 [2]): 50%

EC50 (Piezo1 [3]): 2.51 µM
SMILES: Clc1cccc(Cl)c1CSc1nnc(-c2cnccn2)s1 [Yoda1]

SMILES: Clc1cccc(Cl)c1CSc1nnc(-c2ccccn2)o1 [2j]
inhibition at 10 µM (Piezo1 [4]): ~75%

SMILES: Clc1cccc(Cl)c1CSc1nnc(-c2cnccn2)o1 [compound 11]
Emax (Piezo1 [5]): ~70%
